According to patent US20240000872A1, “NOVEL BACTERIOPHAGE THAT LYSES ACINETOBACTER GENUS BACTERIA HAVING RESISTANCE TO ANTIBIOTICS” (priority 2020, published 2024):

Tested on: Acinetobacter baumannii strains
Assay: Antibiotic susceptibility test (CLSI disk diffusion test method, read per CLSI 2016); note: key: ‘S’ means susceptible; ‘I’ means intermediate; ‘R’ means resistant
Assay type: cell-based

CN(C)c1cc(NC(=O)CNC(C)(C)C)c(O)c2c1C[C@H]1C[C@H]3[C@H](N(C)C)C(O)=C(C(N)=O)C(=O)[C@@]3(O)C(O)=C1C2=O [Tigecycline, tigecycline]
antibiotic susceptibility class (host strain YMC14/01/C29): S | antibiotic susceptibility class (host strain YMC14/01/IP122): S | antibiotic susceptibility class (host strain YMC14/01/L8): S | antibiotic susceptibility class (host strain YMC14/01/P31): S | antibiotic susceptibility class (host strain YMC14/01/P117): S | antibiotic susceptibility class (host strain YMC14/01/P224): I | antibiotic susceptibility class (host strain YMC14/01/P727): R | antibiotic susceptibility class (host strain YMC14/01/P728): S | antibiotic susceptibility class (host strain YMC14/01/R130): S | antibiotic susceptibility class (host strain YMC14/01/R160): S | antibiotic susceptibility class (host strain YMC14/01/R198): S | antibiotic susceptibility class (host strain YMC14/01/R257): S | antibiotic susceptibility class (host strain YMC14/01/R270): S | antibiotic susceptibility class (host strain YMC14/01/R324): S | antibiotic susceptibility class (host strain YMC14/01/R443): S | antibiotic susceptibility class (host strain YMC14/01/R451): S | antibiotic susceptibility class (host strain YMC14/01/R560): R | antibiotic susceptibility class (host strain YMC14/01/R617): S | antibiotic susceptibility class (host strain YMC14/01/R671): S | antibiotic susceptibility class (host strain YMC14/01/R732): R | antibiotic susceptibility class (host strain YMC14/01/R767): S | antibiotic susceptibility class (host strain YMC14/01/R904): S | antibiotic susceptibility class (host strain YMC14/01/R905): S | antibiotic susceptibility class (host strain YMC14/01/R921): S | antibiotic susceptibility class (host strain YMC14/01/R941): R | antibiotic susceptibility class (host strain YMC14/01/R958): R | antibiotic susceptibility class (host strain YMC14/01/R1006): S | antibiotic susceptibility class (host strain YMC14/01/R1199): S | antibiotic susceptibility class (host strain YMC14/01/R1659): S | antibiotic susceptibility class (host strain YMC14/01/R1722): S | antibiotic susceptibility class (host strain YMC14/01/R1752): S | antibiotic susceptibility class (host strain YMC14/01/R2429): S | antibiotic susceptibility class (host strain YMC14/01/R2572): I | antibiotic susceptibility class (host strain YMC14/01/R2855): S | antibiotic susceptibility class (host strain YMC14/01/R2945): S | antibiotic susceptibility class (host strain YMC14/01/R3007): S | antibiotic susceptibility class (host strain YMC14/01/R3129): I | antibiotic susceptibility class (host strain YMC14/01/R3317): S | antibiotic susceptibility class (host strain YMC14/01/R3474): S | antibiotic susceptibility class (host strain YMC14/01/R3574): S | antibiotic susceptibility class (host strain YMC14/01/U313): R | antibiotic susceptibility class (host strain YMC14/01/U318): S | antibiotic susceptibility class (host strain YMC14/02/L18): S | antibiotic susceptibility class (host strain YMC14/02/P47): I | antibiotic susceptibility class (host strain YMC14/02/R1860): I | antibiotic susceptibility class (host strain YMC14/02/R2417): S | antibiotic susceptibility class (host strain YMC14/02/R2599): S | antibiotic susceptibility class (host strain YMC14/02/R2668): R | antibiotic susceptibility class (host strain YMC14/02/R2758): R | antibiotic susceptibility class (host strain YMC14/02/R2781): S | antibiotic susceptibility class (host strain YMC14/02/R3106): S | antibiotic susceptibility class (host strain YMC14/02/R3419): R | antibiotic susceptibility class (host strain YMC14/02/U1607): S | antibiotic susceptibility class (host strain YMC14/03/L9): S | antibiotic susceptibility class (host strain YMC14/03/P471): S | antibiotic susceptibility class (host strain YMC14/03/R122): R | antibiotic susceptibility class (host strain YMC14/03/R217): S | antibiotic susceptibility class (host strain YMC14/03/R380): R | antibiotic susceptibility class (host strain YMC14/03/R618): S | antibiotic susceptibility class (host strain YMC14/03/R2144): S | antibiotic susceptibility class (host strain YMC14/03/U4616): S | antibiotic susceptibility class (host strain YMC14/04/R1078): S | antibiotic susceptibility class (host strain YMC14/04/R1080): S | antibiotic susceptibility S/I/R (host strain YMC14/06/R2359): S | susceptibility category (S/I/R) (host strain YMC14/06/R2359): S | antibiotic susceptibility S/I/R (host strain YMC14/08/R1169): R | susceptibility category (S/I/R) (host strain YMC14/08/R1169): R | antibiotic susceptibility S/I/R (host strain YMC14/08/T90): S | susceptibility category (S/I/R) (host strain YMC14/08/T90): S | susceptibility category (S/I/R) (host strain YMC15/02/R436): I | antibiotic susceptibility S/I/R (host strain YMC15/02/T28): S | susceptibility category (S/I/R) (host strain YMC15/02/T28): S | antibiotic susceptibility S/I/R (host strain YMC15/03/R1604): S | susceptibility category (S/I/R) (host strain YMC15/03/R1604): S | susceptibility category (S/I/R) (host strain YMC15/09/R1869): I | antibiotic susceptibility S/I/R (host strain YMC16/01/P11): S | susceptibility category (S/I/R) (host strain YMC16/01/P11): S | antibiotic susceptibility S/I/R (host strain YMC16/01/R123): S | susceptibility category (S/I/R) (host strain YMC16/01/R123): S | antibiotic susceptibility S/I/R (host strain YMC16/01/R198): S | susceptibility category (S/I/R) (host strain YMC16/01/R198): S | antibiotic susceptibility S/I/R (host strain YMC16/01/R353): S | susceptibility category (S/I/R) (host strain YMC16/01/R353): S | antibiotic susceptibility S/I/R (host strain YMC16/01/R380): S | susceptibility category (S/I/R) (host strain YMC16/01/R380): S | antibiotic susceptibility S/I/R (host strain YMC16/01/R397): S | susceptibility category (S/I/R) (host strain YMC16/01/R397): S | antibiotic susceptibility S/I/R (host strain YMC16/01/R405): R | susceptibility category (S/I/R) (host strain YMC16/01/R405): R | susceptibility category (S/I/R) (host strain YMC16/03/R4461): I | antibiotic susceptibility S/I/R (host strain YMC16/05/R2210): S | susceptibility category (S/I/R) (host strain YMC16/05/R2210): S | antibiotic susceptibility S/I/R (host strain YMC16/07/R2512): S | susceptibility category (S/I/R) (host strain YMC16/07/R2512): S | antibiotic susceptibility S/I/R (host strain YMC16/09/R2471): S | susceptibility category (S/I/R) (host strain YMC16/09/R2471): S | antibiotic susceptibility S/I/R (host strain YMC16/10/R2537): S | susceptibility category (S/I/R) (host strain YMC16/10/R2537): S | antibiotic susceptibility S/I/R (host strain YMC16/12/B11422): S | susceptibility category (S/I/R) (host strain YMC16/12/B11422): S | antibiotic susceptibility S/I/R (host strain YMC16/12/B11449): S | susceptibility category (S/I/R) (host strain YMC16/12/B11449): S | antibiotic susceptibility S/I/R (host strain YMC16/12/B13325): S | susceptibility category (S/I/R) (host strain YMC16/12/B13325): S | antibiotic susceptibility S/I/R (host strain YMC16/12/P503): S | susceptibility category (S/I/R) (host strain YMC16/12/P503): S | susceptibility category (S/I/R) (host strain YMC16/12/R4637): I | antibiotic susceptibility S/I/R (host strain YMC17/01/B8053): R | susceptibility category (S/I/R) (host strain YMC17/01/B8053): R | antibiotic susceptibility S/I/R (host strain YMC17/01/B10087): S | susceptibility category (S/I/R) (host strain YMC17/01/B10087): S | antibiotic susceptibility S/I/R (host strain YMC17/01/B12075): S | susceptibility category (S/I/R) (host strain YMC17/01/B12075): S | antibiotic susceptibility S/I/R (host strain YMC17/01/B13454): S | susceptibility category (S/I/R) (host strain YMC17/01/B13454): S | antibiotic susceptibility S/I/R (host strain YMC17/01/P518): S | susceptibility category (S/I/R) (host strain YMC17/01/P518): S | susceptibility category (S/I/R) (host strain YMC17/01/R2812): I | antibiotic susceptibility S/I/R (host strain YMC17/02/B14): S | susceptibility category (S/I/R) (host strain YMC17/02/B14): S | antibiotic susceptibility S/I/R (host strain YMC17/02/B87): S | susceptibility category (S/I/R) (host strain YMC17/02/B87): S | antibiotic susceptibility S/I/R (host strain YMC17/02/B721): S | susceptibility category (S/I/R) (host strain YMC17/02/B721): S | antibiotic susceptibility S/I/R (host strain YMC17/02/B4039): S | susceptibility category (S/I/R) (host strain YMC17/02/B4039): S | antibiotic susceptibility S/I/R (host strain YMC17/02/B4520): S | susceptibility category (S/I/R) (host strain YMC17/02/B4520): S | antibiotic susceptibility S/I/R (host strain YMC17/02/B4864): S | susceptibility category (S/I/R) (host strain YMC17/02/B4864): S | antibiotic susceptibility S/I/R (host strain YMC17/02/B8414): R | susceptibility category (S/I/R) (host strain YMC17/02/B8414): R | antibiotic susceptibility S/I/R (host strain YMC17/02/P523): S | susceptibility category (S/I/R) (host strain YMC17/02/P523): S | susceptibility category (S/I/R) (host strain YMC17/02/R541): I | antibiotic susceptibility S/I/R (host strain YMC17/02/R2392): S | susceptibility category (S/I/R) (host strain YMC17/02/R2392): S | antibiotic susceptibility S/I/R (host strain YMC17/03/B4730): R | susceptibility category (S/I/R) (host strain YMC17/03/B4730): R | antibiotic susceptibility S/I/R (host strain YMC17/03/B5000): S | susceptibility category (S/I/R) (host strain YMC17/03/B5000): S | antibiotic susceptibility S/I/R (host strain YMC17/03/P971): R | susceptibility category (S/I/R) (host strain YMC17/03/P971): R | antibiotic susceptibility S/I/R (host strain YMC17/03/R348): S | susceptibility category (S/I/R) (host strain YMC17/03/R348): S | susceptibility category (S/I/R) (host strain YMC17/03/R585): I | antibiotic susceptibility S/I/R (host strain YMC17/03/R1888): R | susceptibility category (S/I/R) (host strain YMC17/03/R1888): R | antibiotic susceptibility S/I/R (host strain YMC17/03/R3279): S | susceptibility category (S/I/R) (host strain YMC17/03/R3279): S | antibiotic susceptibility S/I/R (host strain YMC17/03/R4077): R | susceptibility category (S/I/R) (host strain YMC17/03/R4077): R | antibiotic susceptibility S/I/R (host strain YMC17/03/R4607): S | susceptibility category (S/I/R) (host strain YMC17/03/R4607): S | antibiotic susceptibility S/I/R (host strain YMC17/04/R488): S | susceptibility category (S/I/R) (host strain YMC17/04/R488): S | antibiotic susceptibility S/I/R (host strain YMC17/04/R640): R | susceptibility category (S/I/R) (host strain YMC17/04/R640): R | susceptibility category (S/I/R) (host strain YMC/17/05/R1095): I
